Assay results reported in US20260083865A1, “PROSTATE SPECIFIC MEMBRANE ANTIGEN (PSMA) LIGANDS AND USE THEREOF” (priority 2022, published 2026).
Numbered stars: 1 amine (or outer) side, 2 acyl side, 3 side chain; on linkers, the order of the positions; unused ones are H or OH. Bridge positions count the residues as written; N and C are the ends. Square brackets hold non-standard residues; d marks the D form. Side chains are listed from the residue outwards. Peptide text beside a SMILES is read from it. * marks the point of attachment. TtdsdLys(DOTA)NH2 = NC(=O)[C@@H](CCCCNC(=O)CN1CCN(CC(=O)O)CCN(CC(=O)O)CCN(CC(=O)O)CC1)NC(=O)CCC(=O)NCCCOCCOCCOCCCN*; DOTA = O=C(O)CN1CCN(CC(=O)O)CCN(CC(=O)*)CCN(CC(=O)O)CC1; Phe(3-Cl) = N[C@@H](Cc1cccc(Cl)c1)C(=O)O; Phe(4-Cl) = N[C@@H](Cc1ccc(Cl)cc1)C(=O)O; Phe(4-F) = N[C@@H](Cc1ccc(F)cc1)C(=O)O; Arg(Me) = CNC(=N)NCCC[C@H](N)C(=O)O; 3Pal = N[C@@H](Cc1cccnc1)C(=O)O; X1 = O=C(CC1CCN([*:1])CC1)[*:2]; Cit = NC(=O)NCCC[C@H](N)C(=O)O; Lys(Me) = CNCCCC[C@H](N)C(=O)O; Tle = CC(C)(C)[C@H](N)C(=O)O; Isovaleryl = CC(C)CC(=O)*; Nle = CCCC[C@H](N)C(=O)O; Hexanoyl = CCCCCC(=O)*; AEEA = NCCOCCOCC(=O)O; Aib = CC(C)(N)C(=O)O; GABA = NCCCC(=O)O

Key:
[1] = molecular target: T1, PSMA-expressing C4-2 cells (Homo sapiens, UniProt Q04609); assay: FACS binding assay (competition with 50 nM PSM-0183); settings: FACS binding, PSMA-expressing C4-2 cells; pIC50 category; read-out: pIC50 [C4-2] CAT (converted)
T1 construct: PSMA-expressing C4-2 cells (ATCC, Cat. No. CRL-3314) were cultured in RPMI-1640; host or cells: C4-2 cells
Outline: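 Competition format: fluorescent tracer PSM-0183 (50 nM) displaced from PSMA on C4-2 cells by a test compound titration over 1 h at 4 °C. Bound tracer was quantified as flow-cytometric AF488 median fluorescence after washing. Four-parameter logistic fits of MFI data gave IC50 and pIC50.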

[2] = molecular target: T2, Fc-fusion protein of human PSMA (hPSMA-Fc) (Homo sapiens, UniProt Q04609); assay: Surface plasmon resonance assay (Biacore T200, single cycle kinetic); assay type: binding; settings: PSMA SPR assay, hPSMA-Fc, 25° C.; pKD category; read-out: pKD CAT (converted)
T2 construct: purchased Acro Biosystems PSA-H5264
Outline: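 KD, expressed as pKD, came from 1:1 Langmuir fits of reference- and buffer-blank-subtracted SPR data. The runs were single-cycle kinetics at 25° C in HBST/0.1% DMSO over human PSMA-Fc, captured to ~1000 RU on a peptide-coated CM5 surface and regenerated with 10 mM glycine pH 1.5.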

T1 sequence (Q04609 whole entry): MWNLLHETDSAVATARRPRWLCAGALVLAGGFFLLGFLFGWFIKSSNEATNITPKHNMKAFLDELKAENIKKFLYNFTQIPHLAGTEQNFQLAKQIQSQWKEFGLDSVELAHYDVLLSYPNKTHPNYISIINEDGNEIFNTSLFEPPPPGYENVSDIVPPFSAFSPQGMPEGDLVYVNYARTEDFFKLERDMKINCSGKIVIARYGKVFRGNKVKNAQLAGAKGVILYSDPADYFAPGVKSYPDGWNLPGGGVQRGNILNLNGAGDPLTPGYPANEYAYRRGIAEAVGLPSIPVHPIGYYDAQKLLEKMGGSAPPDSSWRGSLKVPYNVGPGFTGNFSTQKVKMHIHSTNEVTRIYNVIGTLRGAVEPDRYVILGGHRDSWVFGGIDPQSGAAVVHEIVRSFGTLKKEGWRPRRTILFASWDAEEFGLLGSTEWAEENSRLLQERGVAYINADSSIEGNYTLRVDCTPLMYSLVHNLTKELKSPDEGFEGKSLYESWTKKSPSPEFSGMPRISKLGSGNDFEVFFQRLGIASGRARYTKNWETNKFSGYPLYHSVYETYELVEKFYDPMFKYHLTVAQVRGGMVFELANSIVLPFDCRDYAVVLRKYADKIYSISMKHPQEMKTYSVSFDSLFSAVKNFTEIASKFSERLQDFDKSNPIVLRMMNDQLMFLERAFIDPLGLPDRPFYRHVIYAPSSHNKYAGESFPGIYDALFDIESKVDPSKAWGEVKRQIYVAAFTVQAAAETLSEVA
T2 sequence (Q04609 44-750 limits assumed): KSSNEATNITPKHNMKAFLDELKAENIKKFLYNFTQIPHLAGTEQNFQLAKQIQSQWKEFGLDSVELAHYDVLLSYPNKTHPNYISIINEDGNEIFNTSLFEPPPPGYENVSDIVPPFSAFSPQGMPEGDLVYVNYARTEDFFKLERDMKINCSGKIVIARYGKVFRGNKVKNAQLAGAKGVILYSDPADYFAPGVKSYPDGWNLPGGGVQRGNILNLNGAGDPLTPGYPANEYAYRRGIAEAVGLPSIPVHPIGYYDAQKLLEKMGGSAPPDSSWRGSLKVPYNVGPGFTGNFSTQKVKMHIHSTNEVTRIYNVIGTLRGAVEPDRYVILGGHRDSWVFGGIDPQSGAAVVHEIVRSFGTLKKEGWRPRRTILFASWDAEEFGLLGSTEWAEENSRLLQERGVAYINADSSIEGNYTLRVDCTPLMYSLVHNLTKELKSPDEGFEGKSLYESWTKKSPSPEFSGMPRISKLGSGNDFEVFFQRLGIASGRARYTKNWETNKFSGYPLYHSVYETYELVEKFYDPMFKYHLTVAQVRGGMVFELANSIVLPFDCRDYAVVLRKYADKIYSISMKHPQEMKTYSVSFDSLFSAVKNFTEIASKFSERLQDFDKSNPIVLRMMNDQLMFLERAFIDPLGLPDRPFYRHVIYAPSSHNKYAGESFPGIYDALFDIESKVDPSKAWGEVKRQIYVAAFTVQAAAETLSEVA

Row | SMILES | IC50 [1] [nM] | Kd [2] [nM]
1 | CC(=O)N[C@H](C(=O)NC(C)(C)C(=O)N[C@@H](Cc1cccc(Cl)c1)C(=O)N[C@H]1CSSC[C@@H](C(=O)N[C@H](C(=O)N[C@H](C(N)=O)[C@@H](C)O)C(C)(C)C)NC(=O)[C@H](CC(N)=O)NC(=O)[C@H](CCCCNC(=O)COCCOCCNC(=O)CN2CCN(CC(=O)O)CCN(CC(=O)O)CCN(CC(=O)O)CC2)NC(=O)[C@H](CCCNC(N)=O)NC(=O)[C@H](CCCCN)NC1=O)[C@@H](C)O [PSM-0284, Ac-Thr-Aib-Mcf-[Cys-Lys-Cit-Lys(DOTA-020c)-Asn-Cys]-Tle-Thr-NH2] (Ac-T[Aib][Phe(3-Cl)]CK[Cit]K([AEEA-DOTA])NC[Tle]T-NH2; disulfide 4-9) | < 200 | 12.6 to 126
2 | CCCC[C@H](NC(=O)[C@@H]1CSSC[C@H](NC(=O)[C@H](Cc2ccccc2)NC(=O)[C@H](C)NC(=O)[C@@H](NC(C)=O)[C@@H](C)O)C(=O)N[C@@H](CCCCN)C(=O)N[C@@H](CCCNC(=N)N)C(=O)N[C@@H](C)C(=O)N2CCC[C@H]2C(=O)N1)C(=O)N[C@H](C(=O)N[C@@H](CC(=O)O)C(N)=O)[C@@H](C)O [PSM-0286, Ac-Thr-Ala-Phe-[Cys-Lys-Arg-Ala-Pro-Cys]-Nle-Thr-Asp-NH2] (Ac-TAFCKRAPC[Nle]TD-NH2; disulfide 4-9) | > 3160 | > 501
3 | CCCC[C@H](NC(=O)[C@@H]1CSSC[C@H](NC(=O)[C@H](Cc2ccccc2)NC(=O)[C@H](C)NC(=O)[C@@H](NC(C)=O)[C@@H](C)O)C(=O)N[C@@H](CCCCN)C(=O)N[C@@H](CCCNC(=N)N)C(=O)N[C@@H](C)C(=O)N[C@@H](CC(N)=O)C(=O)N1)C(=O)N[C@H](C(=O)N[C@@H](CC(=O)O)C(N)=O)[C@@H](C)O [PSM-0287, Ac-Thr-Ala-Phe-[Cys-Lys-Arg-Ala-Asn-Cys]-Nle-Thr-Asp-NH2] | < 200 | 12.6 to 126
4 | CC(=O)N[C@H](C(=O)NC(C)(C)C(=O)N[C@@H](Cc1ccccc1)C(=O)N[C@H]1CSSC[C@@H](C(=O)N[C@H](C(=O)N[C@H](C(=O)N[C@H](CCCCNC(=O)CN2CCN(CC(=O)O)CCN(CC(=O)O)CCN(CC(=O)O)CC2)C(N)=O)[C@@H](C)O)C(C)(C)C)NC(=O)[C@H](CC(N)=O)NC(=O)C(C)(C)NC(=O)[C@H](CCCNC(=N)N)NC(=O)[C@H](CCCCN)NC1=O)[C@@H](C)O [PSM-0288, Ac-Thr-Aib-Phe-[Cys-Lys-Arg-Aib-Asn-Cys]-Tle-Thr-lys(DOTA)-NH2] (Ac-T[Aib]FCKR[Aib]NC[Tle]T[dK](DOTA)-NH2; disulfide 4-9) | < 200 | < 12.6
5 | CCCCCC(=O)N[C@H](C(=O)NC(C)(C)C(=O)N[C@@H](Cc1ccccc1)C(=O)N[C@H]1CSSC[C@@H](C(=O)N[C@H](C(=O)N[C@H](C(=O)NCCCOCCOCCOCCCNC(=O)CCC(=O)N[C@H](CCCCNC(=O)CN2CCN(CC(=O)O)CCN(CC(=O)O)CCN(CC(=O)O)CC2)C(N)=O)[C@@H](C)O)C(C)(C)C)NC(=O)[C@H](CC(N)=O)NC(=O)C(C)(C)NC(=O)[C@H](CCC(N)=O)NC(=O)[C@H](CCCCN)NC1=O)[C@@H](C)O [PSM-0289, Hex-Thr-Aib-Pho-[Cys-Lys-Gln-Aib-Asn-Cys]-Tle-Thr-Ttds-lys(DOTA)-NH2] (Hexanoyl-T[Aib]FCKQ[Aib]NC[Tle]T-{TtdsdLys(DOTA)NH2}; disulfide 4-9) | 200 to 1260 | 12.6 to 126
6 | C[C@@H](O)[C@H](NC(=O)[C@@H](NC(=O)[C@@H]1CSSC[C@H](NC(=O)[C@H](Cc2ccc(Cl)cc2)NC(=O)C(C)(C)NC(=O)CN2CCN(CC(=O)O)CCN(CC(=O)O)CCN(CC(=O)O)CC2)C(=O)N[C@@H](CCCCN)C(=O)N[C@@H](CCCNC(=N)N)C(=O)NC(C)(C)C(=O)N[C@@H](CC(N)=O)C(=O)N1)C(C)(C)C)C(N)=O [PSM-0290, DOTA-Aib-Pcf-[Cys-Lys-Arg-Aib-Asn-Cys]-Tle-Thr-NH2] ({DOTA}-[Aib][Phe(4-Cl)]CKR[Aib]NC[Tle]T-NH2; disulfide 3-8) | > 3160 | > 501
7 | CC(=O)N[C@H](C(=O)NC(C)(C)C(=O)N[C@@H](Cc1ccccc1)C(=O)N[C@H]1CSSC[C@@H](C(=O)N[C@H](C(=O)N[C@H](C(=O)N[C@@H](CC(=O)O)C(N)=O)[C@@H](C)O)C(C)(C)C)NC(=O)[C@H](CC(N)=O)NC(=O)[C@H](C)NC(=O)[C@H](CCCNC(=N)N)NC(=O)[C@H](CCC(=O)O)NC1=O)[C@@H](C)O [PSM-0291, Ac-Thr-Aib-Phe-[Cys-Glu-Arg-Ala-Asn-Cys]-Tle-Thr-Asp-NH2] (Ac-T[Aib]FCERANC[Tle]TD-NH2; disulfide 4-9) | 1260 to 3160 | > 501
8 | CC(C)CC(=O)NC(C)(C)C(=O)N[C@@H](Cc1ccccc1)C(=O)N[C@H]1CSSC[C@@H](C(=O)N[C@H](C(=O)N[C@H](C(=O)N[C@H](CCCCNC(=O)CN2CCN(CC(=O)O)CCN(CC(=O)O)CCN(CC(=O)O)CC2)C(N)=O)[C@@H](C)O)C(C)(C)C)NC(=O)[C@H](CC(N)=O)NC(=O)C(C)(C)NC(=O)[C@H](CCCNC(=N)N)NC(=O)[C@H](CCCCN)NC1=O [PSM-0292, Iva-Aib-Phe-[Cys-Lys-Arg-Aib-Asn-Cys]-Tle-Thr-lys(DOTA)-NH2] (Isovaleryl-[Aib]FCKR[Aib]NC[Tle]T[dK](DOTA)-NH2; disulfide 3-8) | < 200 | 12.6 to 126
9 | CC(=O)N[C@H](C(=O)NC(C)(C)C(=O)N[C@@H](Cc1ccc(Cl)cc1)C(=O)N[C@H]1CSSC[C@@H](C(=O)N[C@H](C(=O)N[C@H](C(N)=O)[C@@H](C)O)C(C)(C)C)NC(=O)[C@H](CO)NC(=O)C(C)(C)NC(=O)[C@H](CCCNC(N)=O)NC(=O)[C@H](CCCCN)NC1=O)[C@@H](C)O [PSM-0293, Ac-Thr-Aib-Pcf-[Cys-Lys-Cit-Aib-Ser-Cys]-Tle-Thr-NH2] (Ac-T[Aib][Phe(4-Cl)]CK[Cit][Aib]SC[Tle]T-NH2; disulfide 4-9) | < 200 | < 12.6
10 | CC(=O)N[C@H](C(=O)NC(C)(C)C(=O)N[C@@H](Cc1ccc(F)cc1)C(=O)N[C@H]1CSSC[C@@H](C(=O)N[C@H](C(=O)N[C@H](C(N)=O)[C@@H](C)O)C(C)(C)C)NC(=O)[C@H](CC(N)=O)NC(=O)C(C)(C)NC(=O)[C@H](CCCNC(=N)N)NC(=O)[C@H](CCCCN)NC1=O)[C@@H](C)O [PSM-0294, Ac-Thr-Aib-Pff-[Cys-Lys-Arg-Aib-Asn-Cys]-Tle-Thr-NH2] (Ac-T[Aib][Phe(4-F)]CKR[Aib]NC[Tle]T-NH2; disulfide 4-9) | < 200 | < 12.6
11 | CC(=O)N[C@H](C(=O)NC(C)(C)C(=O)N[C@@H](Cc1ccccc1)C(=O)N[C@H]1CSSC[C@@H](C(=O)N[C@H](C(=O)N[C@H](C(=O)N[C@@H](CC(=O)O)C(=O)NCCCOCCOCCOCCCNC(=O)CCC(=O)N[C@H](CCCCNC(=O)CN2CCN(CC(=O)O)CCN(CC(=O)O)CCN(CC(=O)O)CC2)C(N)=O)[C@@H](C)O)C(C)(C)C)NC(=O)[C@H](CC(N)=O)NC(=O)[C@H](C)NC(=O)[C@H](CCCNC(=N)N)NC(=O)[C@H](CCCCN)NC1=O)[C@@H](C)O [PSM-0295, Ac-Thr-Aib-Phe-[Cys-Lys-Arg-Ala-Asn-Cys]-Tle-Thr-Asp-Ttds-lys(DOTA)-NH2] (Ac-T[Aib]FCKRANC[Tle]TD-{TtdsdLys(DOTA)NH2}; disulfide 4-9) | < 200 | < 12.6
12 | CNCCCC[C@@H]1NC(=O)[C@@H](NC(=O)[C@H](Cc2cccnc2)NC(=O)C(C)(C)NC(=O)[C@@H](NC(=O)CC2CCN(C(=O)CN3CCN(CC(=O)O)CCN(CC(=O)O)CCN(CC(=O)O)CC3)CC2)[C@@H](C)O)CSSC[C@@H](C(=O)N[C@H](C(=O)N[C@H](C(N)=O)[C@@H](C)O)C(C)(C)C)NC(=O)[C@H](CC(N)=O)NC(=O)C(C)(C)NC(=O)[C@H](CCCNC(=N)NC)NC1=O [PSM-0296, DOTA-Cmp-Thr-Aib-Mpa-[Cys-Lys(Me)-Arg(Me)-Aib-Asn-Cys]-Tle-Thr-NH2] ({DOTA}-[X1]T[Aib][3Pal]C[Lys(Me)][Arg(Me)][Aib]NC[Tle]T-NH2; disulfide 5-10) | 200 to 1260 | 126 to 501
13 | CC(=O)N[C@H](C(=O)NC(C)(C)C(=O)N[C@@H](Cc1ccccc1)C(=O)N[C@H]1CSSC[C@@H](C(=O)N[C@H](C(=O)NCCCC(N)=O)C(C)(C)C)NC(=O)[C@H](CC(N)=O)NC(=O)C(C)(C)NC(=O)[C@H](CCCNC(=N)N)NC(=O)[C@H](CCCCN)NC1=O)[C@@H](C)O [PSM-0297, Ac-Thr-Aib-Pho-[Cys-Lys-Arg-Aib-Asn-Cys]-Tle-Gab-NH2] (Ac-T[Aib]FCKR[Aib]NC[Tle][GABA]-NH2; disulfide 4-9) | < 200 | < 12.6
14 | CC(=O)NC(=N)NCCC[C@@H]1NC(=O)[C@H](CCCCN)NC(=O)[C@@H](NC(=O)[C@H](Cc2ccc(Cl)cc2)NC(=O)C(C)(C)NC(C)=O)CSSC[C@@H](C(=O)N[C@H](C(=O)N[C@H](C(=O)N2CCC(CC(=O)N[C@H](CCCCNC(=O)CN3CCN(CC(=O)O)CCN(CC(=O)O)CCN(CC(=O)O)CC3)C(N)=O)CC2)[C@@H](C)O)C(C)(C)C)NC(=O)[C@H](CC(N)=O)NC(=O)C(C)(C)NC1=O [PSM-0298, Ac-Aib-Pcf-[Cys-Lys-Arg(Ac)-Aib-Asn-Cys]-Tle-Thr-Cmp-lys(DOTA)-NH2] (Ac-[Aib][Phe(4-Cl)]CKR(Ac)[Aib]NC[Tle]T[X1][dK](DOTA)-NH2; disulfide 3-8) | 200 to 1260 | 12.6 to 126
